Results taken from paper PMC5460289, “Identification of New Shikonin Derivatives as Antitumor Agents Targeting STAT3 SH2 Domain” (Scientific Reports, 2017).

Legend:
Format in all cases: cell-based, human
MCF-7 = assay: MTT anti-proliferation assay; conditions: 24 h treatment
Experimental: (§1) Initial experiments were performed for evaluation of growth inhibition by the new compounds against six human breast cancer cell lines, including MCF-7 (ER+/PR+, HER-2-), BT474 (ER+/PR+, HER-2+), SKBR-3 (ER-/PR-/HER-2+), MDA-MB-436 (ER-/PR-/HER-2-), MDA-MB-231 (ER-/PR-/HER-2-), MDA-MB-468 (ER-/PR-/HER-2-) and non-tumorigenic MCF-10A cells. After 24 h treatment by the obtained compounds, the inhibition was assessed and the IC50 was summarized. […] Subsequently, the inhibition of STAT3 activation by PMM-172 and Stattic was evaluated using a dual-luciferase assay.
(§2) The anti-proliferative activities of the prepared compounds against MCF-7 (ER+/PR+, HER-2-), BT474 (ER+/PR+, HER-2+), SKBR-3 (ER-/PR-/HER-2+), MDA-MB-436 (ER-/PR-/HER-2-), MDA-MB-231 (ER-/PR-/HER-2-), MDA-MB-468 (ER-/PR-/HER-2-) and non-tumorigenic MCF-10A cell lines were evaluated using a standard (MTT)-based colorimetric assay with some modification. Cell lines were grown to log phase in DMEM supplemented with 10% fetal bovine serum. Cell suspensions were prepared and 100 μL/well dispensed into 96-well plates giving 10^4 cells/well. The subsequent incubation was permitted at 37 °C, 5% CO2 atmosphere for 24 h to allow the cells to reattach. Subsequently, cells were treated with the target compounds at increasing concentrations in the presence of 10% FBS for 24 h. Then, cell viability was assessed by the conventional 3-(4, 5-dimethylthiazol-2-yl)-2, 5-diphenyltetrazolium bromide (MTT) reduction assay and carried out strictly according to the manufacturer instructions. The absorbance (OD570) was read on an ELISA reader (Tecan, Austria). In all experiments, three replicate wells were used for each drug concentration. Each assay was carried out for at least three times.

MDA-MB-231 = assay: MTT anti-proliferation assay; conditions: 24 h treatment
Experimental: as §1, §2

SKBR-3 = assay: MTT anti-proliferation assay; conditions: 24 h treatment
Experimental: as §1, §2

MDA-MB-436 = assay: MTT anti-proliferation assay; conditions: 24 h treatment
Experimental: as §1, §2

BT-474 = assay: MTT anti-proliferation assay; conditions: 24 h treatment
Experimental: as §1, §2

MDA-MB-468 = assay: MTT anti-proliferation assay; conditions: 24 h treatment
Experimental: as §1, §2

[1] = system: STAT3 nuclear localization in MDA-MB-231 cells; assay: STAT3 nuclear localization (cytoplasmic and nuclear extracts, Western blot); conditions: MDA-MB-231, 24 h
Experimental: It is known that the dimerization of STAT3 is induced by the phosphorylation at residue Tyr 705, which then leads to its nuclear translocation. Herein, we investigated the effect of PMM-172 and Stattic on STAT3 nuclear translocation. The cytoplasmic and nuclear proteins of treated cells were extracted and the expressions of STAT3 in both fractions were examined.
Figure 7 MDA-MB-231 cells were treated with indicated concentrations of PMM-172 or Stattic for 24 h, the expression levels of STAT3 in cytoplasmic and nuclear extracts were examined and relative expression levels were analyzed by Image J software. β-actin and Lamin B1 served as markers of cytoplasmic and nuclear extractions, respectively. […] (C) MCF-10A cells were treated with the indicated concentrations of PMM-172 for 24 h. PMM-172 had no effect on the level of the pSTAT3 level in MCF-10A cells. […] Data were shown as mean ± SD from three independent experiments, **P < 0.01. Cropped blots/gels were used in the figure and the gels had been run under the same experimental conditions; the full-length blots/gels are presented in Supplementary Figure S3.
To examine the relative proportion of STAT3 in the cytoplasm and nucleus, cytoplasmic and nuclear extracts were prepared. In brief, control and treated cells were collected and suspended in a buffer containing 10 mM HEPES (pH 7.9), 10 mM KCl, 0.1 mM EDTA (pH 8.0), 0.1 mM EGTA (pH 7.0), 1 mM DTT, 0.5 mM PMSF, 2 μg/mL leupeptin, 2 μg/mL aprotonin, 0.5 mg/mL benzamidine. After 15 min, NP-40 (0.25%) was added, and cell lysate was vortexed for 10 s and centrifuged at 10000 rmp at 4 °C for 1 min. […] The protein content in the nuclear and cytoplasmic fractions was determined using a Pierce BCA protein assay kit.
Cells were rinsed twice with cold PBS and then lysed with RIPA buffer containing a protease inhibitor mixture at 1:100 dilution on ice for 30 min. Insoluble components of cell lysates were removed by centrifugation (4 °C, 12000 rmp, 10 min), and protein concentrations were measured using a Pierce BCA protein assay kit. […]

[2] = system: pSTAT3 (Tyr705) in MDA-MB-231 cells; assay: Western blot of constitutive STAT3 activation
Text: It has been well recognized that the aberrant activation of STAT3 contributes to malignant transformation and tumorgenesis, and its activity is ultimately dependent upon phosphorylation of residue Y705. […] In this study, the ability of PMM-172 and Stattic inhibiting the constitutive STAT3 activation in MDA-MB-231 cells was investigated. […] We further measured STAT3 phosphorylation at Tyr705 in a time-course experiment.
Figure 6 (A) PMM-172 suppressed constitutive pSTAT3 (Tyr705) in a dose-dependent manner. (B) PMM-172 suppressed constitutive pSTAT3 (Tyr705) in a time-dependent manner. (C) MDA-MB-231 cells were treated with IL-6 (20 ng/mL) or vehicle for 30 min, with or without pretreatment with PMM-172 (2 μM) for 24 h. PMM-172 inhibited IL-6 induced phosphorylation of STAT3. (D) Stattic suppressed constitutive pSTAT3 (Tyr705) in a dose-dependent manner. (E) Stattic suppressed constitutive pSTAT3 (Tyr705) in a time-dependent manner. (F) Tyrosine phosphorylation of two STAT family proteins STAT1 and STAT5 were detected with specific antibodies. […] Data were shown as mean ± SD of three independent experiments. *P < 0.05, **P < 0.01. Cropped blots/gels were used in the figure and the gels had been run under the same experimental conditions; the full-length blots/gels are presented in Supplementary Figure S2.
Cells were rinsed twice with cold PBS and then lysed with RIPA buffer containing a protease inhibitor mixture at 1:100 dilution on ice for 30 min. Insoluble components of cell lysates were removed by centrifugation (4 °C, 12000 rmp, 10 min), and protein concentrations were measured using a Pierce BCA protein assay kit. Proteins were separated by sodium dodecyl sulfate-polyacrylamide gel electrophoresis (SDS-PAGE) and transferred from the gel onto polyvinylidene difluoride (PVDF) membranes. The membranes were blocked with 5% skim milk in TBST buffer for 1 h at room temperature, and then incubated with corresponding primary antibodies diluted in 5% milk-TBST solution at 4 °C with gentle shaking overnight. After washing five times (5 min each), corresponding HRP-conjugated secondary antibodies were incubated for 1 h at room temperature. Immunoreactive bands were visualized using an ECL detection kit (Invitrogen, USA) following the manufacturer’s instruction.

[3] = system: STAT3-TATA-Luc reporter in MDA-MB-231 cells; assay: STAT3 dual-luciferase reporter assay; conditions: MDA-MB-231, 24 h treatment
Experimental: Figure 3 MDA-MB-231 cells were transfected with STAT3-TATA-Luc reporter and Renilla luciferase reporter plasmids. After 24 h, cells were treated with indicated concentrations of PMM-172 or Stattic for 24 h and then luciferase intensity was measured. Results are fold change ± SD of three independent experiments, *P < 0.05, **P < 0.01.
Cells were seeded in 24 well plates and transiently transfected together with STAT3 reporter plasmid 4 × M67 pTATA TK-Luc (0.2 μg/per well, Addgene, USA) and Renilla luciferase control reporter plasmid pRL-CMV (0.1 μg/per well, promega, USA), using lipofectamine 2000 (Invitrogen, USA). Then the cells were incubated with complete medium for 24 h with PMM-172 or Stattic. Following the treatment, the cells were harvested in 100 μL of passive lysis buffer (Promega, USA) in each well. A 25 μL aliquot of cell lysate was subjected to a luciferase assay by using the dual-luciferase assay kit (Promega, USA). STAT3 luciferase activity was measured by EnVision Mutilabel Reader (Perkin Elmer, USA). Relative luciferase activity was calculated after the activity of STAT3-dependent firefly luciferase had been normalized to that of Renilla luciferase. All values are expressed as - fold induction relative to basal activity.

For `O=[N+]([O-])c1ccc2c(c1)S(=O)(=O)C=C2` [Stattic, reference compound], the IC50 (MCF-7) was 5.85 ± 0.72 µM, the IC50 (MDA-MB-231) was 3.18 ± 0.33 µM and the IC50 (SKBR-3) was 3.39 ± 0.56 µM. It also gave an IC50 (MDA-MB-436) of 3.76 ± 0.5 µM, an IC50 (BT-474) of 5.11 ± 0.57 µM and an IC50 (MDA-MB-468) of 3.54 ± 0.42 µM. The “level of STAT3 in the nuclear fraction” value [1] was “suppressed STAT3 nuclear localization”, the STAT3 expression [2] was “had no effect on STAT3 expression” and the “STAT3 phosphorylation at Tyr705, time-course” value [2] was “reduced with the longer treatment”. For the same compound, the “level of Y705-phosphorylated STAT3 (constitutive), dose series” value [2] was “could reduce the level of Y705-phosphorylated STAT3 in MDA-MB-231 cells in a dose-dependent manner” and the STAT3 luciferase activity [3] was “only a slight advantage over PMM-172”.
